From PubChem BioAssay (NCI)
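Cultured in 96-well plates, cells were exposed to test compound for 48 hours across five concentrations. GI50 = concentration required for 50% inhibition of growth. Definition used: TGI = concentration required for complete inhibition of growth.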

Legend:
Test in all cases: DTP human tumour cell line panel, 48 h
786-0 renal = tested on: 786-0 renal
A549 NSCLC = tested on: A549 NSCLC
CAKI-1 renal = tested on: CAKI-1 renal
HCT-15 colon = tested on: HCT-15 colon
NCI-H522 lung = tested on: NCI-H522 lung
RXF 393 renal = tested on: RXF 393 renal
SK-MEL-2 melanoma = tested on: SK-MEL-2 melanoma
SW-620 colon = tested on: SW-620 colon
TK-10 renal = tested on: TK-10 renal
UACC-62 melanoma = tested on: UACC-62 melanoma

Structure (SMILES)	GI50 (786-0 renal)	TGI (786-0 renal)	GI50 (A549 NSCLC)	TGI (A549 NSCLC)	GI50 (CAKI-1 renal)	TGI (CAKI-1 renal)	GI50 (HCT-15 colon)	TGI (HCT-15 colon)	GI50 (NCI-H522 lung)	TGI (NCI-H522 lung)	GI50 (RXF 393 renal)	TGI (RXF 393 renal)	GI50 (SK-MEL-2 melanoma)	TGI (SK-MEL-2 melanoma)	GI50 (SW-620 colon)	TGI (SW-620 colon)	GI50 (TK-10 renal)	TGI (TK-10 renal)	GI50 (UACC-62 melanoma)	TGI (UACC-62 melanoma)
NNc1c2ccccc2nc2ccccc12	6.2 µM	29.4 µM	5.29 µM	> 100 µM	3.29 µM	19.4 µM	4.2 µM	34.2 µM	2.59 µM	14.4 µM	7.4 µM	24.4 µM	12.5 µM	29.2 µM	4.06 µM	27.4 µM	8.32 µM	26.7 µM	3.44 µM	19.3 µM
O=[N+]([O-])c1ccc2c(Nc3ccccc3-c3ccccc3Nc3c4ccccc4nc4cc([N+](=O)[O-])ccc34)c3ccccc3nc2c1	–	13.4 µM	–	> 56.2 µM	–	50.6 µM	–	17.6 µM	–	17.4 µM	–	17.4 µM	–	6.55 µM	–	11.1 µM	–	36.9 µM	–	11.5 µM
COCCOCOC(C)(C)[C@H](CCOC(C)=O)O[Si](c1ccccc1)(c1ccccc1)C(C)(C)C	–	58.9 µM	–	> 100 µM	–	> 100 µM	–	> 100 µM	–	29.4 µM	–	45.7 µM	–	59.2 µM	–	> 100 µM	–	87.1 µM	–	55.3 µM
O=c1cccc(C#CC#CCCCO)o1	5.27 µM	14 µM	17.8 µM	> 58.8 µM	2.9 µM	8.17 µM	2.11 µM	5.3 µM	3.55 µM	> 32 µM	3.27 µM	11.5 µM	12.6 µM	> 100 µM	2.67 µM	–	2.97 µM	9.55 µM	4.42 µM	10.5 µM
CCOC(=O)C1=C(C)N2C(=NC3=C(CCC/C3=C\c3ccc(Cl)cc3)C2c2ccc(Cl)cc2)S1 (centres undefined)	2 µM	4.74 µM	2.08 µM	5.13 µM	5.08 µM	> 100 µM	2.15 µM	4.84 µM	3.84 µM	17.8 µM	1.88 µM	3.51 µM	19 µM	62.1 µM	2.44 µM	6.39 µM	5.23 µM	65.9 µM	3.25 µM	16.8 µM
